According to patent US12274709B2, “Dual-drug co-delivery system, preparation method therefor and use thereof” (Institute of Basic Medical Sciences Chinese Academy of …, priority 2019, dated 2025):
Where a name gives a salt, the structure may show the parent alone.

Experiments:
Type in all cases: cell-based
[1] = tested on: HL60/A cells (HL60 cells resistant to Doxorubicin); assay: CCK8 cell viability, HL60/A cells; conditions: 24 h
Experimental: Taking HL60/A cells (HL60 cells resistant to Doxorubicin) as an example, the specific method was as follows:
(§1) Cells in the Corning 96-well U plates were incubated for 24 h and then washed with PBS, 110 μL CCK8 dilution was added to each well and incubated for 2 h, and the absorbance values (OD) at wavelengths of 450 and 630 nm were measured using the microplate reader. The cell viability was calculated according to Formula 1.

MCF7 cells = assay: CCK8 cell viability, MCF7 cells; conditions: Homo sapiens, HHT 25 ng/mL, DOX 100 ng/mL (4:1)
Experimental: as §1

K562 cells = assay: CCK8 cell viability, K562 cells; conditions: Homo sapiens, HHT 25 ng/mL, DOX 375 ng/mL (15:1)
Experimental: as §1

[2] = tested on: U937R (cytarabine-resistant strain, acute myeloid leukemia); assay: CCK8 cell viability, U937R cells; conditions: HHT 15 ng/mL, DOX 120 ng/mL (8:1)
Experimental: as §1

HeLa cells = assay: CCK8 cell viability, HeLa cells; conditions: Homo sapiens, HHT 20 ng/mL, DOX 120 ng/mL (6:1)
Experimental: as §1

| SMILES | cytotoxicity against Doxorubicin-resistant strain HL60/A ([1]; DOX 200 ng/mL, FIG. 3) | viability at 0.1 µg/mL (MCF7 cells) | viability at 0.375 µg/mL (K562 cells) | viability at 0.12 µg/mL [2] | viability at 0.12 µg/mL (HeLa cells) | viability at 0.025 µg/mL ([1]; Homo sapiens, HL60/A cells, HHT 25 ng/mL, DOX 200 ng/mL (DOX:HHT 8:1), FIG. 3, system of Example 1) | viability at 0.025 µg/mL (MCF7 cells) | viability at 0.025 µg/mL (K562 cells) | viability at 0.015 µg/mL [2] | viability at 0.02 µg/mL (HeLa cells) |
| --- | --- | --- | --- | --- | --- | --- | --- | --- | --- | --- |
| COc1cccc2c1C(=O)c1c(O)c3c(c(O)c1C2=O)C[C@@](O)(C(=O)CO)C[C@@H]3O[C@H]1C[C@H](N)[C@H](O)[C@H](C)O1 [DOX, Doxorubicin hydrochloride] | no cytotoxicity | 92% | 80% | 55% | 90% | – | – | – | – | – |
| COC(=O)C[C@](O)(CCCC(C)(C)O)C(=O)O[C@@H]1C(OC)=C[C@]23CCCN2CCc2cc4c(cc2[C@H]13)OCO4 [HHT, Homoharringtonine] | – | – | – | – | – | 56% | 50% | 59% | 59% | 41% |
